Paper PMC6895048, “4,5-Disubstituted 1,2,3-triazoles: Effective Inhibition of Indoleamine 2,3-Dioxygenase 1 Enzyme Regulates T cell Activity and Mitigates Tumor Growth” (Scientific Reports, 2019)

What was measured:
[1] = biological target: T1, purified human IDO1 enzyme (Homo sapiens, UniProt P14902); assay: IDO1 inhibition assay by the spectrometric method (pDMAB); type: biochemical; settings: purified human IDO1; spectrophotometric; mean of three independent assays; read-out: hIDO1 IC50
T1 construct: made in house; host or cells: Escherichia coli M15 (pQE30 vector with pREP4 plasmid)
Protocol: Both IDO1 and TDO inhibition assays were performed according to the reported procedures[26]–[30],[50],[51]. […] In the assay system, the minimum and maximum amount of DMSO was 0.02% and 2%, respectively. […] The concentration of the inhibitors was varied from 100 µM to 32 nM by serial dilution technique. Then, the reaction was quenched with 100 µL of 30% (w/v) trichloroacetic acid and was incubated for further 15 minutes at 65 °C. After that, 2% (w/v) pDMAB was used to quantify the amount of kynurenine formation. The absorbance of the reaction mixture was recorded by UV-Vis spectrophotometer at 480 nm.

[2] = biological target: T2, purified human TDO enzyme (Homo sapiens, UniProt P48775); assay: TDO inhibition assay by the spectrometric method; type: biochemical; settings: spectrophotometric
T2 construct: 6xHis (N); made in house; host or cells: Escherichia coli BL21 (DE3) (pET 28a vector)
Protocol: Both IDO1 and TDO inhibition assays were performed according to the reported procedures[26]–[30],[50],[51]. The solubility of the compounds in water was either moderate or poor. […] In the assay system, the minimum and maximum amount of DMSO was 0.02% and 2%, respectively. The standard reaction mixture (500 μL) containing KPB (100 mM, pH 6.5 for IDO1 enzyme and 50 mM, pH 8.0 for TDO enzyme), sodium ascorbate (20 mM), methylene blue (10 µM), catalase (240 nM, from bovine liver), L-Trp (150 µM), purified enzyme (40 nM for IDO1 and 25 nM for TDO), DMSO (0.05%, v/v), Triton-X 100 (0.01%, v/v) and inhibitors was incubated at 37 °C for 1 hour. The concentration of the inhibitors was varied from 100 µM to 32 nM by serial dilution technique. Then, the reaction was quenched with 100 µL of 30% (w/v) trichloroacetic acid and was incubated for further 15 minutes at 65 °C. After that, 2% (w/v) pDMAB was used to quantify the amount of kynurenine formation. The absorbance of the reaction mixture was recorded by UV-Vis spectrophotometer at 480 nm. The Km = 59.76 µM and Kcat = 6.18 sec^−1.

T2 sequence (P48775 whole entry): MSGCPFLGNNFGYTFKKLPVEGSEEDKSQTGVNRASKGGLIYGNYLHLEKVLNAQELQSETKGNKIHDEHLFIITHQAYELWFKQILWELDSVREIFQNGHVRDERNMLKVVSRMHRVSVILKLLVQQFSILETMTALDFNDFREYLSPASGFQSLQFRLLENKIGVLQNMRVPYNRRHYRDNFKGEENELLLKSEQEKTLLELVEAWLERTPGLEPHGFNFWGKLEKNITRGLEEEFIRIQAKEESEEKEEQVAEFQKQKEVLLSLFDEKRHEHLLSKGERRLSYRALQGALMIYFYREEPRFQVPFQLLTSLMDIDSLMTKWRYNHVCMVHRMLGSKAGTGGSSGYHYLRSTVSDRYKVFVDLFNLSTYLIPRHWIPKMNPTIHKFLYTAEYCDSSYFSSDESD
T1 sequence (P14902 whole entry): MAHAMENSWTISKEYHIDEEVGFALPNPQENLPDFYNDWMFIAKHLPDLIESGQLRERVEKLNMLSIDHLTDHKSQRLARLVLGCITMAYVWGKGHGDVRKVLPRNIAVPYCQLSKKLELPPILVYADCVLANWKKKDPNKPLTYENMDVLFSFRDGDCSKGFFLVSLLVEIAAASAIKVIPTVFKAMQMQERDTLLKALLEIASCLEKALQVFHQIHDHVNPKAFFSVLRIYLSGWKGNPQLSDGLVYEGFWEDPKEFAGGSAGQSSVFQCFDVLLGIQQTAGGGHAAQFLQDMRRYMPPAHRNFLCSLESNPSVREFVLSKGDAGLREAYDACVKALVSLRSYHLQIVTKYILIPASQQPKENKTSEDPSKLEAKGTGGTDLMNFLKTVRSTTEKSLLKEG

Compound	IC50 [1] [nM]	also measured
CCOC(=O)c1n[nH]nc1-c1cccc(Br)c1 [Compound 2e]	2981 ± 12	
CCOC(=O)c1n[nH]nc1-c1ccc(F)cc1 [Compound 2f]	8090 ± 210	
CCOC(=O)c1n[nH]nc1-c1ccc(Cl)cc1 [Compound 2g]	392 ± 84	% of Enzyme inhibition (TDO) ([2]; 32 nM): 16%; % of Enzyme inhibition (TDO) ([2]; 160 nM): 18%; % of Enzyme inhibition (TDO) ([2]; 800 nM): 23%; % of Enzyme inhibition (TDO) ([2]; 4 µM): 28%; % of Enzyme inhibition (TDO) ([2]; 20 µM): 36%; % of Enzyme inhibition (TDO) ([2]; 100 µM): 46%
CCOC(=O)c1n[nH]nc1-c1ccc(Br)cc1 [Compound 2h]	18400 ± 1680	
CCOC(=O)c1n[nH]nc1-c1ccc(F)c(Cl)c1 [Compound 2k]	1690 ± 102	
Cc1ccc(-c2n[nH]nc2C(N)=O)cc1 [Compound 3b]	7080 ± 691	
NC(=O)c1n[nH]nc1-c1cccc(F)c1 [Compound 3c]	6610 ± 355	
NC(=O)c1n[nH]nc1-c1cccc(Cl)c1 [Compound 3d]	2690 ± 55	
NC(=O)c1n[nH]nc1-c1cccc(Br)c1 [Compound 3e]	26700 ± 2200	
NC(=O)c1n[nH]nc1-c1ccc(F)cc1 [Compound 3f]	2940 ± 34	
NC(=O)c1n[nH]nc1-c1ccc(Cl)cc1 [Compound 3g]	624 ± 23	% of Enzyme inhibition (TDO) ([2]; 32 nM): 5%; % of Enzyme inhibition (TDO) ([2]; 160 nM): 8%; % of Enzyme inhibition (TDO) ([2]; 800 nM): 15%; % of Enzyme inhibition (TDO) ([2]; 4 µM): 27%; % of Enzyme inhibition (TDO) ([2]; 20 µM): 35%; % of Enzyme inhibition (TDO) ([2]; 100 µM): 39%
NC(=O)c1n[nH]nc1-c1ccc(Br)cc1 [Compound 3h]	5156 ± 11	
NC(=O)c1n[nH]nc1-c1ccc(F)c(Cl)c1 [Compound 3k]	1830 ± 126	

The next lines start with results.

IC50 [1] [nM]	Compound	also measured
18600 ± 398	O=C(NC1C2CC3CC(C2)CC1C3)c1n[nH]nc1-c1ccc(Cl)c(Cl)c1 (stereo not drawn) [Compound 4e]	
2740 ± 195	CC(C)(C)OC(=O)NCCNC(=O)c1n[nH]nc1-c1ccc(F)c(F)c1 [Compound 4f]	
880 ± 18	O=C(N/C(Cc1ccccc1)=N\O)c1n[nH]nc1-c1ccc(F)c(F)c1 [Compound 4g]	
3810 ± 240	O=C(N/C(Cc1ccc(F)c(F)c1)=N\O)c1n[nH]nc1-c1ccc(F)c(F)c1 [Compound 4h]	
2360 ± 308	CC(=O)Nc1ccc(/C(=N/O)NC(=O)c2n[nH]nc2-c2ccc(F)c(F)c2)cc1 [Compound 4j]	
